US9670227B2, “Thienopyrimidine derivatives, a process for their preparation and pharmaceutical compositions containing them” (LES LABORATOIRES SERVIER, priority 2013, dated 2017)
Read-outs that look alike come from different tables or passages of the source.

Tests used:
Mcl-1 protein = Mcl-1 protein (UniProtKB primary accession number: Q07820) (Homo sapiens, UniProt Q07820); test: Inhibition of Mcl-1 by fluorescence polarisation, Method 1; format: binding; details: read-out: IC50 (M) Mcl-1 FP
Method in brief: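 Fluorescence polarisation competition with an 11-point compound dilution series (final DMSO 5%). Mcl-1 protein at 5 nM and fluorescein-labelled ligand at 1 nM (final) in 10 mM HEPES, 150 mM NaCl, 0.05% Tween 20, pH 7.4.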

[1] = test system: H929 multiple myeloma tumour line; test: In vitro cytotoxicity, Microculture Tetrazolium Assay; format: cell-based; details: H929 cells, 48 hours exposure, MTT, read-out: IC50 (μM) MTT H929
Description: The cytotoxicity studies were carried out on the H929 multiple myeloma tumour line.
The cells are distributed onto microplates and exposed to the test compounds for 48 hours.

[2] = fluorescence polarisation test, Method 2 values are underlined in the patent (underlining not visible here)
[3] = fluorescence polarisation, Method 1, or Method 2

Chain of Mcl-1 protein (Q07820 whole entry): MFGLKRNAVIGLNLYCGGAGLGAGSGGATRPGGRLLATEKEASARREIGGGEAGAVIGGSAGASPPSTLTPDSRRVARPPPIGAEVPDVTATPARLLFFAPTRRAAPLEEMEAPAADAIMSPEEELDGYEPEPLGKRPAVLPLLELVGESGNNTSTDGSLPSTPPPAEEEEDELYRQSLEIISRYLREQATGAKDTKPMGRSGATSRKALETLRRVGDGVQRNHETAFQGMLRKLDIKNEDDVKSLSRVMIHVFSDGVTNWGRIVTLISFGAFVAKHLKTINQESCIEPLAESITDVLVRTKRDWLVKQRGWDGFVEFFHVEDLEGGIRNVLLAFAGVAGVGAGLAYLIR

Row | SMILES | IC50 (Mcl-1 protein; [2]) [M] | IC50 ([1]; Homo sapiens, NCI-H929, 48 h) [µM] | IC50 (Mcl-1 protein; [3]) [M] | IC50 [1] [µM]
1 | Cc1c(-c2c(-c3ccc(F)cc3)sc3ncnc(OC(Cc4ccccc4OCc4ccnc(N5CCOCC5)n4)C(=O)O)c23)ccc(OCCN(C)C)c1Cl [Example 129, (2R)-2-{[(5Sa)-5-{3-chloro-4-[2-(dimethylamino)ethoxy]-2-methylphenyl}-6-(4-fluorophenyl)thieno[2,3-d]pyrimidin-4-yl]oxy}-3-(2-{[2-(morpholin-4-yl)pyrimidin-4-yl]methoxy}phenyl)propanoic acid] | 2.2e-09 | 0.069 | – | –
2 | COCCOCCOCCOc1ccccc1CC(Oc1ncnc2sc(-c3ccc(F)o3)c(-c3ccc(OCCN4CCN(C)CC4)c(Cl)c3C)c12)C(=O)O [Example 197, (2R)-2-{[(5Sa)-5-{3-chloro-2-methyl-4-[2-(4-methylpiperazin-1-yl)ethoxy]phenyl}-6-(5-fluorofuran-2-yl)thieno[2,3-d]pyrimidin-4-yl]oxy}-3-(2-{2-[2-(2-methoxyethoxy)ethoxy]ethoxy}phenyl)propanoic acid] | 5.4e-09 | 0.07 | – | –
3 | Cc1cccc(COc2ccccc2CC(Oc2ncnc3sc(-c4ccco4)c(-c4ccc(OCCN5CCN(C)CC5)c(Cl)c4C)c23)C(=O)O)n1 [Example 235, (2R)-2-{[(5Sa)-5-{3-chloro-2-methyl-4-[2-(4-methylpiperazin-1-yl)ethoxy]phenyl}-6-(furan-2-yl)thieno[2,3-d]pyrimidin-4-yl]oxy}-3-{2-[(6-methylpyridin-2-yl)methoxy]phenyl}propanoic acid] | 5.1e-09 | 0.098 | – | –
4 | Cc1c(-c2c(-c3ccc(F)cc3)sc3ncnc(OC(Cc4ccccc4OCc4ccnc(Cc5ccccc5)n4)C(=O)O)c23)ccc(OCCN2CCN(C)CC2)c1Cl [Example 40, (2R)-3-{2-[(2-benzylpyrimidin-4-yl)methoxy]phenyl}-2-{[(5Sa)-5-{3-chloro-2-methyl-4-[2-(4-methylpiperazin-1-yl)ethoxy]phenyl}-6-(4-fluorophenyl)thieno[2,3-d]pyrimidin-4-yl]oxy}propanoic acid] | 5.6e-09 | 0.008 | – | –
5 | CCn1nccc1COc1ccccc1CC(Oc1ncnc2sc(-c3ccc(F)cc3)c(-c3cnc(OCCN4CCN(C)CC4)c(Cl)c3C)c12)C(=O)O [Example 652, (2R)-2-{[(5Ra)-5-{5-chloro-4-methyl-6-[2-(4-methylpiperazin-1-yl)ethoxy]pyridin-3-yl}-6-(4-fluorophenyl)thieno[2,3-d]pyrimidin-4-yl]oxy}-3-{2-[(1-ethyl-1H-pyrazol-5-yl)methoxy]phenyl}propanoic acid] | – | 0.059 | 4.7e-09 | –
6 | COc1ccccc1CC(Oc1ncnc2sc(-c3ccc(Cl)cc3)c(-c3ccc(OCCN4CCN(C)CC4)c(Cl)c3C)c12)C(=O)O [Example 539, (2R)-2-{[(5Sa)-5-{3-chloro-2-methyl-4-[2-(4-methylpiperazin-1-yl)ethoxy]phenyl}-6-(4-chlorophenyl)thieno[2,3-d]pyrimidin-4-yl]oxy}-3-(2-methoxyphenyl)propanoic acid] | – | 0.731 | 7.2e-08 | –
7 | Cc1c(-c2c(-c3ccco3)sc3ncnc(OC(Cc4ccccc4OCc4cccc(Cl)n4)C(=O)O)c23)ccc(OCCN2CCN(C)CC2)c1Cl [Example 236, (2R)-2-{[(5Sa)-5-{3-chloro-2-methyl-4-[2-(4-methylpiperazin-1-yl)ethoxy]phenyl}-6-(furan-2-yl)thieno[2,3-d]pyrimidin-4-yl]oxy}-3-{2-[(6-chloropyridin-2-yl)methoxy]phenyl}propanoic acid] | 7.4e-09 | 0.137 | – | –
8 | CNC(=O)COc1ccccc1CC(Oc1ncnc2sc(-c3ccc(F)o3)c(-c3ccc(OCCN4CCN(C)CC4)c(Cl)c3C)c12)C(=O)O [Example 151, (2R)-2-{[(5Sa)-5-{3-chloro-2-methyl-4-[2-(4-methylpiperazin-1-yl)ethoxy]phenyl}-6-(5-fluorofuran-2-yl)thieno[2,3-d]pyrimidin-4-yl]oxy}-3-{2-[2-(methylamino)-2-oxoethoxy]phenyl}propanoic acid] | 3.6e-09 | 0.309 | – | –
9 | Cc1c(-c2c(-c3ccc(F)cc3)sc3ncnc(OC(Cc4ccccc4OCc4ccnc(-c5ccc(Cl)cc5)n4)C(=O)O)c23)ccc(OCCN2CCN(C)CC2)c1Cl [Example 27, (2R)-2-{[(5Sa)-5-{3-chloro-2-methyl-4-[2-(4-methylpiperazin-1-yl)ethoxy]phenyl}-6-(4-fluorophenyl)thieno[2,3-d]pyrimidin-4-yl]oxy}-3-(2-{[2-(4-chlorophenyl)pyrimidin-4-yl]methoxy}phenyl)propanoic acid] | 6.6e-09 | 0.045 | – | –
10 | Cc1c(-c2c(-c3cccc(F)c3)sc3ncnc(OC(Cc4ccccc4OC(C)C)C(=O)O)c23)ccc(OCCN2CCN(C)CC2)c1Cl [Example 709, (2R)-2-{[(5Sa)-5-{3-chloro-2-methyl-4-[2-(4-methylpiperazin-1-yl)ethoxy]phenyl}-6-(3-fluorophenyl)thieno[2,3-d]pyrimidin-4-yl]oxy}-3-[2-(propan-2-yloxy)phenyl]propanoic acid] | – | 0.518 | 3.2e-08 | –
11 | Cc1c(-c2c(-c3cccc(F)c3F)sc3ncnc(OC(Cc4ccccc4OCc4ccnc(C(F)(F)F)n4)C(=O)O)c23)ccc(OCCN2CCN(C)CC2)c1Cl [Example 705, (2R)-2-{[(5Sa)-5-{3-chloro-2-methyl-4-[2-(4-methylpiperazin-1-yl)ethoxy]phenyl}-6-(2,3-difluorophenyl)thieno[2,3-d]pyrimidin-4-yl]oxy}-3-(2-{[2-(trifluoromethyl)pyrimidin-4-yl]methoxy}phenyl)propanoic acid] | – | 0.02 | 1.7e-08 | –
12 | Cc1c(-c2c(-c3ccco3)sc3ncnc(O[C@H](Cc4ccccc4OCc4cc(C5CC5)nn4C)C(=O)O)c23)ccc(OCCN2CCN(C)CC2)c1Cl [Example 226, (2R)-2-{[(5Sa)-5-{3-chloro-2-methyl-4-[2-(4-methylpiperazin-1-yl)ethoxy]phenyl}-6-(furan-2-yl)thieno[2,3-d]pyrimidin-4-yl]oxy}-3-{2-[(3-cyclopropyl-1-methyl-1H-pyrazol-5-yl)methoxy]phenyl}propanoic acid] | 2.4e-08 | – | – | 0.311
13 | COc1ccccc1-c1nccc(COc2ccccc2CC(Oc2ncnc3sc(-c4ccc(OCCN5CCOCC5)cc4)c(-c4ccc(OCCN5CCN(C)CC5)c(Cl)c4C)c23)C(=O)O)n1 (single isomer, unassigned) [Example 764] | – | 0.019 | 1.35e-09 | –
14 | CNCCOc1ccc(-c2c(-c3ccco3)sc3ncnc(OC(Cc4ccccc4OC)C(=O)O)c23)c(C)c1Cl [Example 331, (2R)-2-{[(5Sa)-5-{3-chloro-2-methyl-4-[2-(methylamino)ethoxy]phenyl}-6-(furan-2-yl)thieno[2,3-d]pyrimidin-4-yl]oxy}-3-(2-methoxyphenyl)propanoic acid] | 6e-09 | 0.394 | – | –
15 | CCc1sc2ncnc(OC(Cc3ccccc3)C(=O)O)c2c1-c1ccc(OCCN(CCO)CCO)c(Cl)c1C [Example 412, (2R)-2-{[(5Sa)-5-(4-{2-[bis(2-hydroxyethyl)amino]ethoxy}-3-chloro-2-methylphenyl)-6-ethylthieno[2,3-d]pyrimidin-4-yl]oxy}-3-phenylpropanoic acid] | – | 28.7 | 5.1e-08 | –
16 | Cc1c(-c2c(-c3ccco3)sc3ncnc(OC(Cc4ccccc4OCc4cnc(N5CCCC5)nc4)C(=O)O)c23)ccc(OCCN2CCN(C)CC2)c1Cl [Example 272, (2R)-2-{[(5Sa)-5-{3-chloro-2-methyl-4-[2-(4-methylpiperazin-1-yl)ethoxy]phenyl}-6-(furan-2-yl)thieno[2,3-d]pyrimidin-4-yl]oxy}-3-(2-{[2-(pyrrolidin-1-yl)pyrimidin-5-yl]methoxy}phenyl)propanoic acid] | 2.2e-08 | 0.822 | – | –
17 | Cc1c(-c2c(-c3ccc(F)cc3)sc3ncnc(OC(Cc4ccccc4OCc4ccnn4CCCC(F)(F)F)C(=O)O)c23)ccc(OCCN2CCN(C)CC2)c1Cl [Example 84, (2R)-2-{[(5Sa)-5-{3-chloro-2-methyl-4-[2-(4-methylpiperazin-1-yl)ethoxy]phenyl}-6-(4-fluorophenyl)thieno[2,3-d]pyrimidin-4-yl]oxy}-3-(2-{[1-(4,4,4-trifluorobutyl)-1H-pyrazol-5-yl]methoxy}phenyl)propanoic acid] | 3.8e-09 | 0.018 | – | –
18 | Cc1c(-c2c(-c3ccco3)sc3ncnc(OC(Cc4ccccc4OCCOCc4ccccc4)C(=O)O)c23)ccc(OCCN2CCN(C)CC2)c1Cl [Example 292, (2R)-3-{2-[2-(benzyloxy)ethoxy]phenyl}-2-{[(5Sa)-5-{3-chloro-2-methyl-4-[2-(4-methylpiperazin-1-yl)ethoxy]phenyl}-6-(furan-2-yl)thieno[2,3-d]pyrimidin-4-yl]oxy}propanoic acid] | 9.3e-09 | 0.192 | – | –
19 | COc1ccccc1CC(Oc1ncnc2sc(-c3ccco3)c(-c3ccc(OC4CCCN(C)C4)c(Cl)c3C)c12)C(=O)O (single isomer, unassigned) [Example 301, (2R)-2-{[(5Sa)-5-{3-chloro-2-methyl-4-[((3R or S)-1-methylpiperidin-3-yl)oxy]phenyl}-6-(furan-2-yl)thieno[2,3-d]pyrimidin-4-yl]oxy}-3-(2-methoxyphenyl)propanoic acid] | 1.2e-08 | – | – | 0.108
20 | COc1cc(F)ccc1CC(Oc1ncnc2sc(-c3ccc(Cl)o3)c(-c3ccc(OCCN4CCN(C)CC4)c(Cl)c3C)c12)C(=O)O [Example 718, (2R)-2-{[6-(5-chlorofuran-2-yl)-(5Sa)-5-{3-chloro-2-methyl-4-[2-(4-methylpiperazin-1-yl)ethoxy]phenyl}thieno[2,3-d]pyrimidin-4-yl]oxy}-3-(4-fluoro-2-methoxyphenyl)propanoic acid] | – | 0.082 | 1.2e-08 | –
